Data on 41 molecules can be found in US10544143B2, “4-azaindole compounds” (BRISTOL-MYERS SQUIBB COMPANY, priority 2017, dated 2020).

Experiment [1] addresses human TLR7 (Homo sapiens (Human), UniProt Q9NYK1). Briefly: TLR7 inhibition reporter assay (HEK-Blue SEAP). It is filed as cell-based. Conditions: HEK-Blue cells overexpressing human TLR7, SEAP reporter, gardiquimod 7.5 μM.
Experiment [2] deals with human TLR8 (Homo sapiens (Human), UniProt Q9NR97). Briefly: TLR8 inhibition reporter assay (HEK-Blue SEAP).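 Also: SEAP driven by IFN-β minimal promoter carrying NF-κB and AP-1 sites, compounds dosed 0.05 nM to 50 µM for 22 h, inhibition scaled between agonist-plus-DMSO and reference-inhibitor wells.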 Conditions: read-out: TLR8 IC50; HEK-Blue cells overexpressing human TLR8, SEAP reporter, R848 15.9 μM.
human TLR8, sequence (Q9NR97 27-1041): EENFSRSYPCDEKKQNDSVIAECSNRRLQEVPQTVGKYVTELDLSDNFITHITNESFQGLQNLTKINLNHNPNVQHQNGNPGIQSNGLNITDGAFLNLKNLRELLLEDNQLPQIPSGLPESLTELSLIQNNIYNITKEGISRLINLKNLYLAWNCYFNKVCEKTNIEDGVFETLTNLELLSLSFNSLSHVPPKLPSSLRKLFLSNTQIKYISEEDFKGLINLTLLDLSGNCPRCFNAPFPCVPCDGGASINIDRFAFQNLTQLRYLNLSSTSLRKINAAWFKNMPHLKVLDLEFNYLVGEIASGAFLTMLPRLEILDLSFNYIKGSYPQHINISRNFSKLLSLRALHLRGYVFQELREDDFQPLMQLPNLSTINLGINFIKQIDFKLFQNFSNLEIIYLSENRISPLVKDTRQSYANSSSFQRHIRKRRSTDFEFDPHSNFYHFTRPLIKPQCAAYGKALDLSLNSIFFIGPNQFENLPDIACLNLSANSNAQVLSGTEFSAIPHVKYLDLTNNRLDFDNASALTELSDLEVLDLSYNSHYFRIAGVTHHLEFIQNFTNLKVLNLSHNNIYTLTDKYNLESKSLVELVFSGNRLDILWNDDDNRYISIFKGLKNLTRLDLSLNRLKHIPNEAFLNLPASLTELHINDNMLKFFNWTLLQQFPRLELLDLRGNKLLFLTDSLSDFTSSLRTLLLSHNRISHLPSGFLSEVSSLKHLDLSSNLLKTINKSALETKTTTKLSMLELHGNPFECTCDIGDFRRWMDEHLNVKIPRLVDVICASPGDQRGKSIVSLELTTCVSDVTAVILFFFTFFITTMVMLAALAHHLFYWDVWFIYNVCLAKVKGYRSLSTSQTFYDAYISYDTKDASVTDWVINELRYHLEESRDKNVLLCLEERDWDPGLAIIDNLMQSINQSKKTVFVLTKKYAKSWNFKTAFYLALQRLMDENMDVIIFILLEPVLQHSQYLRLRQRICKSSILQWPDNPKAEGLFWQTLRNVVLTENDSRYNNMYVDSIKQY
For experiment [3], the target named is human TLR9 (Homo sapiens (Human), UniProt Q9NR96). Briefly: TLR9 inhibition reporter assay (HEK-Blue SEAP).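 Also: SEAP driven by an IFN-β minimal promoter with NF-κB and AP-1 sites, read after 22 h, compounds dosed 0.05 nM–50 µM, inhibition scaled between agonist plus DMSO and reference-inhibitor wells.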 Conditions: read-out: TLR9 IC50; HEK-Blue cells overexpressing human TLR9, SEAP reporter, ODN2006 5 nM.
human TLR9, sequence (Q9NR96 26-1032): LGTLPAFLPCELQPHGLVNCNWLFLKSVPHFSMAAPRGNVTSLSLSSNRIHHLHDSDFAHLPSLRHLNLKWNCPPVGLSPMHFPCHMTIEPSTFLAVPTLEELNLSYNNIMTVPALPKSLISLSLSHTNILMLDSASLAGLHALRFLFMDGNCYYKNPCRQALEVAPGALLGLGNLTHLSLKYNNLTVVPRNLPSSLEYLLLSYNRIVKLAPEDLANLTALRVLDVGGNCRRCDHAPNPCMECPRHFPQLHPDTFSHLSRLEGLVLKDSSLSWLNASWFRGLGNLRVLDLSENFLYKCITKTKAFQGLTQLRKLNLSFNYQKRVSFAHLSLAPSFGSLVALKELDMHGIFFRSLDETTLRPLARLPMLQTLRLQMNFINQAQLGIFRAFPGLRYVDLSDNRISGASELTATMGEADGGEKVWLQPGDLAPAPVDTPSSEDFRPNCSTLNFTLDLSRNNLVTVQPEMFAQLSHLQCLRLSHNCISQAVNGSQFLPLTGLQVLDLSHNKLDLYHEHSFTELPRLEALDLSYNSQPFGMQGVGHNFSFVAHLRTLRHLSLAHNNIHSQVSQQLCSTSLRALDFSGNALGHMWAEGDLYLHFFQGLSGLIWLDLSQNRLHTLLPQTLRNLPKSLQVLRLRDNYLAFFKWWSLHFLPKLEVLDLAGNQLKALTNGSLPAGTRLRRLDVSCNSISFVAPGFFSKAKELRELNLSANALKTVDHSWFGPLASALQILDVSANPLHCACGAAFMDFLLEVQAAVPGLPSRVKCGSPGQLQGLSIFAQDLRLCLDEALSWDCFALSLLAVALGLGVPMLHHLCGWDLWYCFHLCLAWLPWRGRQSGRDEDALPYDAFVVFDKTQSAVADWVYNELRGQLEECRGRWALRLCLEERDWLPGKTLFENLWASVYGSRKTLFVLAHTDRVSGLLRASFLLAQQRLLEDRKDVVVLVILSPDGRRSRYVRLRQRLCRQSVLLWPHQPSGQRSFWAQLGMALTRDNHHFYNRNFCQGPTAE

human TLR7, sequence (Q9NYK1 27-1049): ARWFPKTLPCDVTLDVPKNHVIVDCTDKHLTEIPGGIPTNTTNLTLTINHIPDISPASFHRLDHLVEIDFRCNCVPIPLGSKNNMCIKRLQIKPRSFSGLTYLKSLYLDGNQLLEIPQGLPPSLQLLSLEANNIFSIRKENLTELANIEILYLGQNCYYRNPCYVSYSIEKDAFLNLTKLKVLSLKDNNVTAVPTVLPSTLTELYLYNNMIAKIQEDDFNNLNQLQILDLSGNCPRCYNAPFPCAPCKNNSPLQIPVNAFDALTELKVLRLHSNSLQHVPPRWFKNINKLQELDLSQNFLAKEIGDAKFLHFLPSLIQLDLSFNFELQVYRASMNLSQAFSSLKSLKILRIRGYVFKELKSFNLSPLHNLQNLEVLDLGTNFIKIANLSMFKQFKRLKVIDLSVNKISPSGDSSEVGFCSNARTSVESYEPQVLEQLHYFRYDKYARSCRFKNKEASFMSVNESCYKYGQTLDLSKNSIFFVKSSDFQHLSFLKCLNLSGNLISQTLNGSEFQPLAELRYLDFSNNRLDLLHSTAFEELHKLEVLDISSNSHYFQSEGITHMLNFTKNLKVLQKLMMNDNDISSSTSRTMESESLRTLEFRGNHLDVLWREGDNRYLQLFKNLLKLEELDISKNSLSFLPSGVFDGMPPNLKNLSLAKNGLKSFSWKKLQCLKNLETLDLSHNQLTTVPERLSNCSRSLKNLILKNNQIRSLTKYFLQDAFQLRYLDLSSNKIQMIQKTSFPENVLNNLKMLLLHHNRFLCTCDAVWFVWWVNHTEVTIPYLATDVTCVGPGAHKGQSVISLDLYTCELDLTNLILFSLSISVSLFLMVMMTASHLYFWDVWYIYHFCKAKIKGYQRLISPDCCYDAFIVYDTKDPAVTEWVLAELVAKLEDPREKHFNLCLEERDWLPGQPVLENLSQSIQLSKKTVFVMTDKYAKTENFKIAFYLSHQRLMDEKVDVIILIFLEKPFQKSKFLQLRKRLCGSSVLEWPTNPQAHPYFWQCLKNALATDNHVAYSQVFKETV

Consider `COc1cc(-c2[nH]c3ccc(C4CC(N(C)CC(=O)N(C)C)C4)nc3c2C(C)C)cn2ncnc12` (stereo not drawn) [Example 627], for which the IC50 in experiment [1] came to 7.9 nM; in experiment [2] it was 18 nM; in experiment [3] it was 4500 nM.

As for `CNC(=O)CNC1CC(c2ccc3[nH]c(-c4cc(OC)c5ncnn5c4)c(C(C)C)c3n2)C1` (stereo not drawn) [Example 628], the values for the IC50 in experiment [1], in experiment [2] and in experiment [3] were 2.1 nM, 3.3 nM and 343 nM, respectively.

Take `COc1cc(-c2[nH]c3ccc(C4CC(N(C)C)C4)nc3c2C(C)C)cn2ncnc12` (stereo not drawn) [Example 629]: the half-inhibitory concentration (IC50) in experiment [1] worked out at 2.6 nM; in experiment [2] it was 6.5 nM; in experiment [3], 1920 nM.

For `COc1cc(-c2[nH]c3ccc(C4CC(N(C)C(=O)CN(C)C)C4)nc3c2C(C)C)cn2ncnc12` (stereo not drawn) [Example 630], the IC50 in experiment [1] came out at 1.9 nM; in experiment [2], 14 nM; in experiment [3], 1280 nM.

`CNC(=O)CNC1CC(c2ccc3[nH]c(-c4cn5ncnc5c(C)c4C)c(C(C)C)c3n2)C1` (stereo not drawn) [Example 631]: the figures for the IC50 in experiment [1], in experiment [2] and in experiment [3] were 4 nM, 1.9 nM and 3070 nM, respectively.

Take `COc1cc(-c2[nH]c3ccc(C4CC(NC5CCOCC5)C4)nc3c2C(C)C)cn2ncnc12` (stereo not drawn) [Example 632]: the concentration for half-maximal inhibition (IC50) stood at 3.1 nM in experiment [1], 2.2 nM in experiment [2] and 439 nM in experiment [3].

Turning to `Cc1c(-c2[nH]c3ccc(C4CC(N(CC5(C)COC5)CC5(C)COC5)C4)nc3c2C(C)C)cn2ncnc2c1C` (stereo not drawn) [Example 633], the half-maximal inhibitory concentration (IC50) in experiment [1] turned out to be 40 nM; in experiment [2], 33 nM; in experiment [3], 25500 nM.

`COc1cc(-c2[nH]c3ccc(C4CC(NCCS(C)(=O)=O)C4)nc3c2C(C)C)cn2ncnc12` (stereo not drawn) [Example 634]: the half-maximal inhibitory concentration (IC50) in experiment [1] was found to be 2 nM; in experiment [2] it was 3 nM; in experiment [3], 2370 nM.

`Cc1c(-c2[nH]c3ccc(C4CC(NC5CCOCC5)C4)nc3c2C(C)C)cn2ncnc2c1C` (stereo not drawn) [Example 635]: the IC50 in experiment [1] was found to be 5.7 nM; in experiment [2], 1.1 nM; in experiment [3], 1780 nM.

`Cc1c(-c2[nH]c3ccc(C4CC(N(C)CCS(C)(=O)=O)C4)nc3c2C(C)C)cn2ncnc2c1C` (stereo not drawn) [Example 636]: the concentration for half-maximal inhibition (IC50) in experiment [1] came to 46 nM; in experiment [2], 28 nM; in experiment [3], 21600 nM.

Regarding `Cc1c(-c2[nH]c3ccc(C4CC(NCC5(C)COC5)C4)nc3c2C(C)C)cn2ncnc2c1C` (stereo not drawn) [Example 637], the IC50 in experiment [1] came to 3.8 nM; in experiment [2], 0.53 nM; in experiment [3] it was 1360 nM.

On to `COc1cc(-c2[nH]c3ccc(C4CC(NC(=O)CN(C)C)C4)nc3c2C(C)C)cn2ncnc12` (stereo not drawn) [Example 638], for which the 50% inhibitory concentration (IC50) in experiment [1] came to 2.9 nM; in experiment [2], 7.3 nM; in experiment [3], 1270 nM.

`COc1cc(-c2[nH]c3ccc(C4CC(N(C)C)C4)nc3c2C(C)C)cn2ncnc12` (stereo not drawn) [Example 639]: the IC50 amounted to 0.98 nM in experiment [1], 1.9 nM in experiment [2] and 1470 nM in experiment [3].

As for `COc1cc(-c2[nH]c3ccc(C4CC(N(C)CCS(C)(=O)=O)C4)nc3c2C(C)C)cn2ncnc12` (stereo not drawn) [Example 640], the 50% inhibitory concentration (IC50) in experiment [1] came out at 4.9 nM; in experiment [2], 4.9 nM; in experiment [3], 13500 nM.

For `Cc1c(-c2[nH]c3ccc(C4CC(N(C)CC(C)(C)O)C4)nc3c2C(C)C)cn2ncnc2c1C` (stereo not drawn) [Example 641], the figures for the IC50 in experiment [1], in experiment [2] and in experiment [3] were 9.2 nM, 3.5 nM and 3340 nM, respectively.

For `COc1cc(-c2[nH]c3ccc(C4CC(N(C)CCS(C)(=O)=O)C4)nc3c2C(C)C)cn2ncnc12` (stereo not drawn) [Example 642], the values for the IC50 in experiment [1], in experiment [2] and in experiment [3] were 14 nM, 26 nM and 18100 nM, respectively.

Turning to `COc1cc(-c2[nH]c3ccc(C4CC(N(C)CC5(C)COC5)C4)nc3c2C(C)C)cn2ncnc12` (stereo not drawn) [Example 643], the IC50 in experiment [1] worked out at 5.4 nM; in experiment [2] it was 5.3 nM; in experiment [3] it was 3170 nM.

On to `Cc1c(-c2[nH]c3ccc(C4CC(NC(=O)CN(C)C)C4)nc3c2C(C)C)cn2ncnc2c1C` (stereo not drawn) [Example 644], for which the IC50 in experiment [1] turned out to be 2.7 nM; in experiment [2], 4.5 nM; in experiment [3], 2690 nM.

`COc1cc(-c2[nH]c3ccc(C4CN(CC(N)=O)C4)nc3c2C(C)C)cn2ncnc12` [Example 645]: the IC50 in experiment [1] turned out to be 21 nM; in experiment [2] it was 303 nM; in experiment [3], 4090 nM.

Take `Cc1c(-c2[nH]c3ccc(C4CN(CC(N)=O)C4)nc3c2C(C)C)cn2ncnc2c1C` [Example 646]: the IC50 worked out at 2.1 nM in experiment [1], 11 nM in experiment [2] and 4140 nM in experiment [3].

With `COc1cc(-c2[nH]c3ccc(C4CN(CCS(C)(=O)=O)C4)nc3c2C(C)C)cn2ncnc12` [Example 647], the IC50 in experiment [1] turned out to be 2.3 nM; in experiment [2], 26 nM; in experiment [3], 5890 nM.

With `COc1cc(-c2[nH]c3ccc(C4CNC4)nc3c2C(C)C)cn2ncnc12` [Example 648], the concentration for half-maximal inhibition (IC50) in experiment [1] came out at 2.1 nM; in experiment [2], 40 nM; in experiment [3] it was 2070 nM.

Consider `Cc1c(-c2[nH]c3ccc(C4CNC4)nc3c2C(C)C)cn2ncnc2c1C` [Example 649, 6-(5-(azetidin-3-yl)-3-isopropyl-1H-pyrrolo[3,2-b]pyridin-2-yl)-7,8-dimethyl-[1,2,4]triazolo[1,5-a]pyridine], for which the figures for the half-maximal inhibitory concentration (IC50) in experiment [1], in experiment [2] and in experiment [3] were 6.2 nM, 10 nM and 3280 nM, respectively.

With `Cc1c(-c2[nH]c3ccc(C4CN(C(=O)CN(C)C)C4)nc3c2C(C)C)cn2ncnc2c1C` [Example 650], the values for the concentration for half-maximal inhibition (IC50) in experiment [1], in experiment [2] and in experiment [3] were 6.7 nM, 18 nM and 3120 nM, respectively.

For `COc1cc(-c2[nH]c3ccc(C4CN(Cc5c[nH]nn5)C4)nc3c2C(C)C)cn2ncnc12` [Example 651], the IC50 in experiment [1] came to 1.7 nM; in experiment [2], 24 nM; in experiment [3], 687 nM.

Consider `COc1cc(-c2[nH]c3ccc(C4CN(C(=O)CN(C)C)C4)nc3c2C(C)C)cn2ncnc12` [Example 652], for which the IC50 in experiment [1] turned out to be 3 nM; in experiment [2] it was 22 nM; in experiment [3], 1600 nM.

As to `Cc1c(-c2[nH]c3ccc(C4CN(CCS(C)(=O)=O)C4)nc3c2C(C)C)cn2ncnc2c1C` [Example 653, 6-(3-isopropyl-5-(1-(2-(methylsulfonyl)ethyl)azetidin-3-yl)-1H-pyrrolo[3,2-b]pyridin-2-yl)-7,8-dimethyl-[1,2,4]triazolo[1,5-a]pyridine], the IC50 worked out at 5.5 nM in experiment [1], 13 nM in experiment [2] and 13200 nM in experiment [3].

Regarding `Cc1c(-c2[nH]c3ccc(C4CN(CC(C)(C)O)C4)nc3c2C(C)C)cn2ncnc2c1C` [Example 654], the values for the 50% inhibitory concentration (IC50) in experiment [1], in experiment [2] and in experiment [3] were 6.4 nM, 9.6 nM and 4920 nM, respectively.

As for `COc1cc(-c2[nH]c3ccc(C4CN(C(C)C)C4)nc3c2C(C)C)cn2ncnc12` [Example 655], the values for the IC50 in experiment [1], in experiment [2] and in experiment [3] were 1.4 nM, 11 nM and 2070 nM, respectively.

`Cc1c(-c2[nH]c3ccc(C4CN(C(C)C)C4)nc3c2C(C)C)cn2ncnc2c1C` [Example 656]: the results for the IC50 in experiment [1], in experiment [2] and in experiment [3] were 1.4 nM, 4.7 nM and 1850 nM, respectively.

As to `COc1cc(-c2[nH]c3ccc(C4CN(CC(C)(C)O)C4)nc3c2C(C)C)cn2ncnc12` [Example 657], the IC50 stood at 2.1 nM in experiment [1], 10 nM in experiment [2] and 842 nM in experiment [3].

As to `Cc1c(-c2[nH]c3ccc(C4CN(C(C)C)CCO4)nc3c2C(C)C)cn2ncnc2c1C` (stereo not drawn) [Example 658], the half-maximal inhibitory concentration (IC50) is 3.8 nM in experiment [1], 8.2 nM in experiment [2] and 13600 nM in experiment [3].

With `COc1cc(-c2[nH]c3ccc(C4CN(C5CCOCC5)CCO4)nc3c2C(C)C)cn2ncnc12` (stereo not drawn) [Example 659], the figures for the half-inhibitory concentration (IC50) in experiment [1], in experiment [2] and in experiment [3] were 12 nM, 24 nM and 8540 nM, respectively.

`COc1cc(-c2[nH]c3ccc(C4CN(C(C)C)CCO4)nc3c2C(C)C)cn2ncnc12` (stereo not drawn) [Example 660, 4-isopropyl-2-(3-isopropyl-2-(8-methoxy-[1,2,4]triazolo[1,5-a]pyridin-6-yl)-1H-pyrrolo[3,2-b]pyridin-5-yl)morpholine]: the figures for the IC50 in experiment [1], in experiment [2] and in experiment [3] were 3.3 nM, 15 nM and 14400 nM, respectively.

With `COc1cc(-c2[nH]c3ccc(C4CN(C)CCO4)nc3c2C(C)C)cn2ncnc12` (stereo not drawn) [Example 661], the half-inhibitory concentration (IC50) turned out to be 2.3 nM in experiment [1], 5.5 nM in experiment [2] and 13900 nM in experiment [3].

Turning to `Cc1c(-c2[nH]c3ccc(C4CNCCO4)nc3c2C(C)C)cn2ncnc2c1C` (stereo not drawn) [Example 662], the results for the 50% inhibitory concentration (IC50) in experiment [1], in experiment [2] and in experiment [3] were 1.8 nM, 1 nM and 9030 nM, respectively.

For `Cc1c(-c2[nH]c3ccc(C4CN(C(=O)CN(C)C)CCO4)nc3c2C(C)C)cn2ncnc2c1C` (stereo not drawn) [Example 663], the results for the IC50 in experiment [1], in experiment [2] and in experiment [3] were 3.5 nM, 9.9 nM and 21100 nM, respectively.

`Cc1c(-c2[nH]c3ccc(C4CN(C5CCOCC5)CCO4)nc3c2C(C)C)cn2ncnc2c1C` (stereo not drawn) [Example 664]: the IC50 in experiment [1] came out at 22 nM; in experiment [2], 14 nM; in experiment [3], 38500 nM.

On to `Cc1cc(-c2[nH]c3ccc(C4CN(C)CCO4)nc3c2C(C)C)cn(C)c1=O` (stereo not drawn) [Example 665], for which the 50% inhibitory concentration (IC50) was 34 nM in experiment [1], 17 nM in experiment [2] and greater than 50000 nM in experiment [3].

On to `COc1cc(-c2[nH]c3ccc(C4CNCCO4)nc3c2C(C)C)cn2ncnc12` (stereo not drawn) [Example 666], for which the IC50 was determined as 0.73 nM in experiment [1], 1.6 nM in experiment [2] and 6560 nM in experiment [3].

For `Cc1cc(-c2[nH]c3ccc(C4CN(C5COC5)CCO4)nc3c2C(C)C)cn(C)c1=O` (stereo not drawn) [Example 667], the half-inhibitory concentration (IC50) is 145 nM in experiment [1], 711 nM in experiment [2] and greater than 50000 nM in experiment [3].
